Patent US8236818B2, “Substituted imidazopyridine derivatives as melanocortin-4 receptor antagonists” (Santhera Pharmaceuticals (Schweiz) AG, priority 2007, dated 2012)

What follows are compounds tested against T1, melanocortin-4 receptor (Homo sapiens, UniProt P32245) (assay: Membrane binding assay (fluorescence polarization, competition with fluorescence labeled NDP-alpha-MSH)). Settings: read-out: hMC-4R binding assay IC50/μM.
T1 construct: expressed in transfected cells; host or cells: HEK293 cells (membrane preparations)
T1 sequence (P32245 whole entry): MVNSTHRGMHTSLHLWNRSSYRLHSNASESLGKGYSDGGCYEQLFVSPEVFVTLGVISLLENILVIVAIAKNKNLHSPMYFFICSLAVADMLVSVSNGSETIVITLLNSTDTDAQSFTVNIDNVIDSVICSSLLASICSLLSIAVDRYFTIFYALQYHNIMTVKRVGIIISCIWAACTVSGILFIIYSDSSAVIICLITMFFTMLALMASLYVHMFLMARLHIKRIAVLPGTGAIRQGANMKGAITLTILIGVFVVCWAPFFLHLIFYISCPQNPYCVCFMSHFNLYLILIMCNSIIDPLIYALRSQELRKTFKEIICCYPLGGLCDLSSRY

IC50, 0.1 to 1 µM:
O=C(c1ccc2nc(-c3ccc(=O)n(CCO)c3)c(CCCN3CCCC3)n2c1)N(CCC1CC1)CCC1CC1 [Example 107]
CC(C)CCN(CCC(C)C)C(=O)c1ccc2nc(-c3cccc(=O)[nH]3)c(CCCN3CCCC3)n2c1 [Example 62]
CC(C)CCN(CCC(C)C)C(=O)c1ccc2nc(-c3ccccn3)c(CCCN3CCCC3)n2c1 [Example 55]
COc1cccc(-c2nc3ccc(C(=O)N(CCC(C)C)CCC(C)C)cn3c2CCCN(C(C)C)C(C)C)c1 [Example 60]
COc1cccc(-c2nc3ccc(C(=O)N(CCC(C)C)CCC(C)C)cn3c2CN2CCC(N)CC2)c1 [Example 116]
CC(=O)OCCn1cc(-c2nc3ccc(C(=O)N(CCC4CC4)CCC4CC4)cn3c2CCCN2CCCC2C)ccc1=O (stereo not shown) [Example 110]
COc1ccc(-c2nc3ccc(C(=O)N(CCC(C)C)CCC(C)C)cn3c2CN2CCC(N)CC2)cc1 [Example 140]
CC(C)CCN(CCC(C)C)C(=O)c1ccc2nc(-c3ncco3)c(CCCN3CCC[C@H]3CO)n2c1 [Example 76]
CC(C)CCN(CCC(C)C)C(=O)c1ccc2nc(-c3ccc4c(c3)CCC(=O)N4)c(CN3CCC(N)CC3)n2c1 [Example 136]
CC(C)CCN(CCC(C)C)C(=O)c1ccc2nc(-c3ncco3)c(CCCN3CC[C@H](O)C3)n2c1 [Example 80]
CC(C)CCN(CCC(C)C)C(=O)c1ccc2nc(-c3ccc(=O)n(CCCO)c3)c(CCCN3CCCC3)n2c1 [Example 91]

IC50, > 1 µM:
COc1ccc(OC)c(-c2nc3ccc(C(=O)N(CCC(C)C)CCC(C)C)cn3c2CN2CCC(N(C)C)CC2)c1 [Example 130]
CC(C)CCN(CCC(C)C)C(=O)c1ccc2nc(-c3ccc(Cl)cc3)c(CN3CCN4CCCC4C3)n2c1 (stereo not shown) [Example 128]

IC50, < 0.1 µM:
CC(C)CCN(CCC(C)C)C(=O)c1ccc2nc(-c3ncco3)c(CCCN3CCC(O)CC3)n2c1 [Example 77]
CC(C)CCN(CCC(C)C)C(=O)c1ccc2nc(-c3ncco3)c(CCCN3CCC[C@H]3C)n2c1 [Example 86]
CC(C)CCN(CCC(C)C)C(=O)c1ccc2nc(-c3ncco3)c(CCCN(C)C(C)C)n2c1 [Example 75]
CC(C)CCN(CCC(C)C)C(=O)c1ccc2nc(-c3cc(O)ccn3)c(CCCN3CCCC3)n2c1 [Example 44]
Cc1nc(C)c(-c2nc3ccc(C(=O)N(CCC(C)C)CCC(C)C)cn3c2CCCN2CCCC2)o1 [Example 48]
CC(C)CCN(CCC(C)C)C(=O)c1ccc2nc(-c3ccc(N(C)C)nc3)c(CCCN(C)C)n2c1 [Example 51]
COCCn1cc(-c2nc3ccc(C(=O)N(CCC(C)C)CCC(C)C)cn3c2CCCN2CCCC2)ccc1=O [Example 95]
N#Cc1ccc(-c2nc3ccc(C(=O)N(CCC4CC4)CCC4CC4)cn3c2CCCN2CCCC2)cc1 [Example 145]
COc1cccc(-c2nc3ccc(C(=O)N(CCC(C)C)CCC(C)C)cn3c2CCCN2CCCCC2)c1 [Example 31]

These compounds were tested against T1, melanocortin-4 receptor (assay: Functional assay (cAMP fluorescence polarization, membrane based, agonistic activity)). Settings: 2 h; read-out: % activation functional assay.
Assay type: biochemical

Emax, 4%:
CC(C)CCN(CCC(C)C)C(=O)c1ccc2nc(-c3ncco3)c(CCCN3CCC(O)CC3)n2c1 [Example 77]
CC(C)CCN(CCC(C)C)C(=O)c1ccc2nc(-c3ncco3)c(CCCN3CCC[C@H]3CO)n2c1 [Example 76]

Emax, -11%:
CC(C)CCN(CCC(C)C)C(=O)c1ccc2nc(-c3ncco3)c(CCCN3CCC[C@H]3C)n2c1 [Example 86]

Emax, -29%:
CC(C)CCN(CCC(C)C)C(=O)c1ccc2nc(-c3ccc(=O)n(CCCO)c3)c(CCCN3CCCC3)n2c1 [Example 91]

Emax, 0%:
CC(C)CCN(CCC(C)C)C(=O)c1ccc2nc(-c3cccc(=O)[nH]3)c(CCCN3CCCC3)n2c1 [Example 62]
CC(C)CCN(CCC(C)C)C(=O)c1ccc2nc(-c3ccccn3)c(CCCN3CCCC3)n2c1 [Example 55]
COc1cccc(-c2nc3ccc(C(=O)N(CCC(C)C)CCC(C)C)cn3c2CCCN(C(C)C)C(C)C)c1 [Example 60]
CC(C)CCN(CCC(C)C)C(=O)c1ccc2nc(-c3cc(O)ccn3)c(CCCN3CCCC3)n2c1 [Example 44]
COc1cccc(-c2nc3ccc(C(=O)N(CCC(C)C)CCC(C)C)cn3c2CN2CCC(N)CC2)c1 [Example 116]
COc1ccc(OC)c(-c2nc3ccc(C(=O)N(CCC(C)C)CCC(C)C)cn3c2CN2CCC(N(C)C)CC2)c1 [Example 130]
COc1ccc(-c2nc3ccc(C(=O)N(CCC(C)C)CCC(C)C)cn3c2CN2CCC(N)CC2)cc1 [Example 140]
Cc1nc(C)c(-c2nc3ccc(C(=O)N(CCC(C)C)CCC(C)C)cn3c2CCCN2CCCC2)o1 [Example 48]
CC(C)CCN(CCC(C)C)C(=O)c1ccc2nc(-c3ccc(N(C)C)nc3)c(CCCN(C)C)n2c1 [Example 51]
COCCn1cc(-c2nc3ccc(C(=O)N(CCC(C)C)CCC(C)C)cn3c2CCCN2CCCC2)ccc1=O [Example 95]
CC(C)CCN(CCC(C)C)C(=O)c1ccc2nc(-c3ccc4c(c3)CCC(=O)N4)c(CN3CCC(N)CC3)n2c1 [Example 136]
N#Cc1ccc(-c2nc3ccc(C(=O)N(CCC4CC4)CCC4CC4)cn3c2CCCN2CCCC2)cc1 [Example 145]
COc1cccc(-c2nc3ccc(C(=O)N(CCC(C)C)CCC(C)C)cn3c2CCCN2CCCCC2)c1 [Example 31]
CC(C)CCN(CCC(C)C)C(=O)c1ccc2nc(-c3ccc(Cl)cc3)c(CN3CCN4CCCC4C3)n2c1 (stereo not shown) [Example 128]

Emax, -35%:
CC(C)CCN(CCC(C)C)C(=O)c1ccc2nc(-c3ncco3)c(CCCN3CC[C@H](O)C3)n2c1 [Example 80]

Emax, -17%:
O=C(c1ccc2nc(-c3ccc(=O)n(CCO)c3)c(CCCN3CCCC3)n2c1)N(CCC1CC1)CCC1CC1 [Example 107]

Emax, 1%:
CC(C)CCN(CCC(C)C)C(=O)c1ccc2nc(-c3ncco3)c(CCCN(C)C(C)C)n2c1 [Example 75]

Emax, -23%:
CC(=O)OCCn1cc(-c2nc3ccc(C(=O)N(CCC4CC4)CCC4CC4)cn3c2CCCN2CCCC2C)ccc1=O (stereo not shown) [Example 110]

Same assay, conditions: agonistic activity, cAMP, HEK293 membrane preparations; read-out: hMC-4R functional assay EC50/μM

EC50, 0.1 to 1 µM:
CC(C)CCN(CCC(C)C)C(=O)c1ccc2nc(-c3ncco3)c(CCCN3CC[C@H](O)C3)n2c1 [Example 80]
CC(C)CCN(CCC(C)C)C(=O)c1ccc2nc(-c3ccc(=O)n(CCCO)c3)c(CCCN3CCCC3)n2c1 [Example 91]
